Measured values published in patent US7605168B2 (Plexxikon, Inc., priority 2004, dated 2009).

Assays:
[1] = target: T1, PDE4B: catalytic domain of human PDE4B from S152-S528 (Homo sapiens, UniProt Q07343); experiment: PDE4 IC50 determination by Scintillation Proximity Assay (SPA), PDE4B catalytic domain; format: biochemical; details: [3H]cAMP SPA, 30 min at 30° C.
T1 construct: The catalytic domain of human PDE4B from S152-S528; His6 (N, cleaved yes); thrombin cleavage site (N, cleaved yes); made in house; host or cells: E. coli BL21 (DE3) RIL
T1 sequence (Q07343 324-700): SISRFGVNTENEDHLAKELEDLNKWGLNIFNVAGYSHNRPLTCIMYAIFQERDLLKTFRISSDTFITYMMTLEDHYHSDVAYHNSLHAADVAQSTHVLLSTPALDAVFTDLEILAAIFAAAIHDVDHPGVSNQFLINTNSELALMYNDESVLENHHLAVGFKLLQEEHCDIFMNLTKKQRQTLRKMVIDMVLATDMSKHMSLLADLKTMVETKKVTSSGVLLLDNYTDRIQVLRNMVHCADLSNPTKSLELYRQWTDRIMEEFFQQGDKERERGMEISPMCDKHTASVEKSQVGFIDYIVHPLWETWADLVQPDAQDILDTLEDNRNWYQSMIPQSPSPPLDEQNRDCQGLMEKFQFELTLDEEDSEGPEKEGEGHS
Procedure, shortened: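 Human PDE4B catalytic domain (80 ng/ml) hydrolysed [3H]cAMP in 50 mM Tris pH 7.5, 8.3 mM MgCl, 1.7 mM EGTA, 0.01% BSA for 30 min at 30 °C. Reaction was stopped with yttrium silicate SPA beads in 18 mM ZnSO4, and bound [3H]AMP was counted by scintillation. IC50 came from non-linear regression.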

[2] = target: T2, PDE4B2: full-length human PDE4B2 isozyme (Homo sapiens, UniProt Q07343); experiment: PDE4 IC50 determination by Scintillation Proximity Assay (SPA), full-length PDE4B2; format: biochemical; details: cell lysate, [3H]cAMP SPA
T2 construct: made in house; host or cells: baculovirus infected insect cells (pFastBacHT)
T2 sequence (Q07343 with tags, fused parts or gaps isoform Q07343-2): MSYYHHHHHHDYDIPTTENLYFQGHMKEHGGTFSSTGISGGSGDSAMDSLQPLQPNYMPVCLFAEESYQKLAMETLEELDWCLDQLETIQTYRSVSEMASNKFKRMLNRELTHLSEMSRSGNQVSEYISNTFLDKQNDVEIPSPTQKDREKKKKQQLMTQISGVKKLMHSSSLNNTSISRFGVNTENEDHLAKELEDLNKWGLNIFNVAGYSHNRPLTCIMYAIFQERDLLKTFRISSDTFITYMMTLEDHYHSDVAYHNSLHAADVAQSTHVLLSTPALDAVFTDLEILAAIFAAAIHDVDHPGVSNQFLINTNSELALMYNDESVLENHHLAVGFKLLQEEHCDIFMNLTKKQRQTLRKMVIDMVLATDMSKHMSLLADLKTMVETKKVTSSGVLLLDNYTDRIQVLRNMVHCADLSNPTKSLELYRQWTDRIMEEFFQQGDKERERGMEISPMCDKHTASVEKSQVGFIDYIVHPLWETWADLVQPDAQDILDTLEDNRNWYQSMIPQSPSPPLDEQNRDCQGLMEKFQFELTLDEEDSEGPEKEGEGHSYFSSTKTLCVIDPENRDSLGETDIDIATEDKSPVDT
Procedure, shortened: (§1)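 Unpurified enzyme from cell lysates (PDE4B2 2.5 μl, PDE4D5 0.083 μl of 50% glycerol stock/ml) hydrolysing [3H]cAMP in 50 mM Tris pH 7.5, 8.3 mM MgCl, 1.7 mM EGTA, 0.01% BSA, 30 min at 30 °C. Stopped with yttrium silicate SPA beads in 18 mM ZnSO4; bead-bound [3H]AMP counted. IC50 by non-linear regression.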

[3] = target: T3, PDE4D: catalytic domain S316-V692 (Homo sapiens, UniProt Q08499); experiment: PDE4 IC50 determination by Scintillation Proximity Assay (SPA), PDE4D catalytic domain; format: biochemical; details: [3H]cAMP SPA, 30 min at 30° C.
T3 construct: pET15S PDE4D S316-V692-X; His6 (N, cleaved yes); thrombin cleavage site (N, cleaved yes); made in house; host or cells: E. coli BL21 (DE3) RIL
T3 sequence (Q08499 380-756): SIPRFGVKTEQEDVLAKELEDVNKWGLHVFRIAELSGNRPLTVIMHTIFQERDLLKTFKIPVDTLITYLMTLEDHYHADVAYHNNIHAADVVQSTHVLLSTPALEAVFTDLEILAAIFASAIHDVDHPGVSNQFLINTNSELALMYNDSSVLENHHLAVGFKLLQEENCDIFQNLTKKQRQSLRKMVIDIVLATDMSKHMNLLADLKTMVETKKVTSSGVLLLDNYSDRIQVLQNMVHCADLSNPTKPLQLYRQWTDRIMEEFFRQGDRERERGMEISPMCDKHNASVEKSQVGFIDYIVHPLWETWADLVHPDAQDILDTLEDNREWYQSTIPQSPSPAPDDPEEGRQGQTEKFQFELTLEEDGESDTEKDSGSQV
Protocol: IC50s were determined by Scintillation Proximity Assay (SPA). The principle of the assay is based on the fact that cAMP, the PDE4 substrate, binds weakly to Yittrium Silicate SPA beads, whereas AMP, the product of PDE4 hydrolysis binds strongly. Thus, the extent of PDE4 hydrolysis of a sample of [^3H]cAMP can be measured because only the [^3H]AMP produced by PDE4 hydrolysis will bind to the SPA beads and produce a scintillation signal.
[…] Enzyme was stored in 50% glycerol at −20°. See Example 144.
Compounds tested (see Tables 5 for compounds and results) were 3-fold serially diluted 11 times in DMSO from a starting concentration of 4 mM or 40 μM, depending on compound potency. 1 μl of each dilution was transferred into duplicate wells of a white polystyrene 384-well assay plate (Corning #3710). In addition to the compound dilutions, each assay plate contained control wells with 1 μl of DMSO (to define 0% enzyme inhibition) or 1 μl of 200 μM roflumilast (to define 100% enzyme inhibition). Using a Beckman FX robot, 10 μl of [^3H] cAMP (Amersham TRK559) at […] in assay buffer (50 mM Tris, pH 7.5; 8.3 mM MgCl; 1.7 mM EGTA; 0.01% BSA) was transferred to each assay well. Next, 10 μl of PDE4 enzyme in assay buffer was added and the plates were shaken for 30 s. at 1000 rpm to start the cAMP hydrolysis reaction. The concentrations of enzyme used were: PDE4B, 80 ng/ml; PDE4D, 4 ng/ml; PDE4B2, 2.5 μl of 50% glycerol stock/ml; PDE4D5 0.083 μl of 50% glycerol stock/ml. Assay plates were covered and incubated for 30 min. at 30° C. Reactions were stopped by robotic addition of 10 μl of 5 mg/ml SPA beads (Amersham RPNQ0013) in 18 mM ZnSO4. The assay plates were covered with clear plastic film, centrifuged for 1 min. at 1000 RPM to settle the SPA beads, and counted using a Wallac TriLux scintillation counter. IC50's were calculated from the raw assay data by non-linear regression curve fitting using the Assay Explorer software package from MDL.

[4] = target: T4, PDE4D5: full-length human PDE4D5 isozyme (Homo sapiens, UniProt Q08499); experiment: PDE4 IC50 determination by Scintillation Proximity Assay (SPA), full-length PDE4D5; format: biochemical; details: cell lysate, [3H]cAMP SPA
T4 construct: made in house; host or cells: baculovirus infected insect cells (pFastBacHT)
T4 sequence (Q08499 with tags, fused parts or gaps isoform Q08499-6): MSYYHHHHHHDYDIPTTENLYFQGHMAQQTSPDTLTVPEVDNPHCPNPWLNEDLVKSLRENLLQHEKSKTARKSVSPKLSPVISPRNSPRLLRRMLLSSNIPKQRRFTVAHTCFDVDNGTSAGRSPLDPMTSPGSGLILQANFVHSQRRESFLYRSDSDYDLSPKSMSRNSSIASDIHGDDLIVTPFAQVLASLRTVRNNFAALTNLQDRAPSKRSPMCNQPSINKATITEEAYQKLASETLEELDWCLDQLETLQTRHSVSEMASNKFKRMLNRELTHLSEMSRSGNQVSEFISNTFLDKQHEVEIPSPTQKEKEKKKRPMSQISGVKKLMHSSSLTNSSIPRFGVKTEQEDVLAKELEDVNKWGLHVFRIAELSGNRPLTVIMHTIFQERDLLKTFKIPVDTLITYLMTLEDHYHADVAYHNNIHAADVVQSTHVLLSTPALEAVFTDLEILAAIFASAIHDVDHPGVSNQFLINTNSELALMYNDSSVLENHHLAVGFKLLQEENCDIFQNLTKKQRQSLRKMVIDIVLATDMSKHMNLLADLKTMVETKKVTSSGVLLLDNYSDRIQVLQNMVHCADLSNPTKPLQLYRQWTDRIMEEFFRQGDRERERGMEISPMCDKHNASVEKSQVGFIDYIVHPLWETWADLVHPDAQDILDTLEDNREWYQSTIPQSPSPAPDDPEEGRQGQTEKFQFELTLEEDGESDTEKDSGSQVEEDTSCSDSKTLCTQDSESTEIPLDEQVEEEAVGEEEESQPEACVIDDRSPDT
Procedure, shortened: as §1

[5] = tested on: TNF-α release from whole blood cultures stimulated with LPS; experiment: IC50 by TNF alpha production upon stimulation of whole blood cultures with LPS; format: cell-based; details: human whole blood (buffy coat) culture, 100 ng/ml LPS, 4 hours; read-out: h TNFα IC50
Procedure, shortened: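 Human buffy coat, diluted with 7 volumes of RPMI/2.5% heat-inactivated FBS, was preincubated with compound (8-point 1:3 series) for 1 h at 37 °C. It was then stimulated with 100 ng/ml LPS (final) for 4 h. Supernatant TNF-α was measured by sandwich ELISA at 450 nm, and IC50 was set between DMSO (0%) and PDE4-inhibitor (100%) controls.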

| Compound | IC50 [1] [µM] | IC50 [2] [µM] | IC50 [3] [µM] | IC50 [4] [µM] | IC50 [5] [µM] |
| --- | --- | --- | --- | --- | --- |
| COc1ccc2c(c1)c(-c1ccc(OC)c(OC3CCCC3)c1)cn2S(=O)(=O)c1cccc2cc(C)cnc12 [Compound 97, 8-[5-Methoxy-3-(3-cyclopentyloxy-4-methoxy-phenyl)-indole-1-sulfonyl]-3-methyl-quinoline] | < 10 | < 10 | ≤ 10 | > 10 | – |
| CCOC(=O)c1cccc(NC(=O)n2cc(-c3ccc(OC)c(OC)c3)c3cccnc32)c1 [Compound 30, 3-[3-(3,4-Dimethoxy-phenyl)-pyrrolo[2,3-b]pyridine-1-carbonyl]-amino-benzoic acid ethyl ester] | < 10 | < 10 | ≤ 10 | < 10 | – |
| COc1ccc(-c2cn(S(=O)(=O)c3ccccc3)c3ncccc23)cc1OC1CCCC1 [Compound 101, 1-Benzenesulfonyl-3-(3-cyclopentyloxy-4-methoxy-phenyl)-1H-pyrrolo[2,3-b]pyridine] | < 10 | < 10 | ≤ 10 | < 10 | ≤ 10 |
| COc1ccc(-c2cn(S(=O)(=O)c3ccccc3)c3ncccc23)cc1OCc1ccccc1 [Compound 103, 1-Benzenesulfonyl-3-(3-benzyloxy-4-methoxy-phenyl)-1H-pyrrolo[2,3-b]pyridine] | < 10 | < 10 | ≤ 10 | < 10 | – |
| COc1ccc(-c2cn(S(=O)(=O)Cc3ccc(Cl)cc3)c3ncccc23)cc1OC [Compound 17, 1-(4-chloro-phenylmethanesulfonyl)-3-(3,4-dimethoxy-phenyl)-1H-pyrrolo[2,3-b]pyridine] | < 10 | < 10 | ≤ 10 | < 10 | ≤ 10 |
| COc1ccc(-c2cn(C(=O)c3csc4ccccc34)c3ncccc23)cc1OC [Compound 63, Benzo[b]thiophen-3-yl-[3-(3,4-dimethoxy-phenyl)-pyrrolo[2,3-b]pyridin-1-yl]-methanone] | < 10 | < 10 | ≤ 10 | < 10 | ≤ 10 |
| COc1ccc(-c2cn(C(=O)c3cccc4cccnc34)c3ncccc23)cc1OC [Compound 66] | < 10 | < 10 | ≤ 10 | < 10 | ≤ 10 |
| COc1ccc(-c2cn(C(=O)c3ccc(F)c4ccccc34)c3ncccc23)cc1OC [Compound 64, [3-(3,4-Dimethoxy-phenyl)-pyrrolo[2,3-b]pyridin-1-yl]-(4-fluoro-naphthalen-1-yl)-methanone] | < 10 | < 10 | ≤ 10 | < 10 | ≤ 10 |
| COc1ccc(-c2cn(C(=O)c3ccc(N(C)C)c4ccccc34)c3ncccc23)cc1OC [Compound 109, [3-(3,4-Dimethoxy-phenyl)-pyrrolo[2,3-b]pyridin-1-yl]-(4-dimethylamino-naphthalen-1-yl)-methanone] | < 10 | < 10 | ≤ 10 | < 10 | ≤ 10 |
| COc1ccc(-c2cn(S(=O)(=O)c3ccc(-c4ccncc4C)cc3)c3ncccc23)cc1OC [Compound 69, 3-(3,4-Dimethoxy-phenyl)-1-[4-(3-methyl-pyridin-4-yl)-benzenesulfonyl]-1H-pyrrolo[2,3-b]pyridine] | < 10 | < 10 | ≤ 10 | < 10 | ≤ 10 |
| CCOc1cc(NS(C)(=O)=O)ccc1C(=O)n1cc(-c2ccc(OC)c(OC)c2)c2cccnc21 [Compound 145, N-{4-[3-(3,4-Dimethoxy-phenyl)-pyrrolo[2,3-b]pyridine-1-carbonyl]-3-ethoxy-phenyl}-methanesulfonamide] | < 10 | < 10 | ≤ 10 | < 10 | ≤ 10 |
| COc1cccc(NC(=S)n2cc(-c3ccc(OC)c(OC)c3)c3cccnc32)c1 [Compound 42, 3-(3,4-dimethoxy-phenyl)-pyrrolo[2,3-b]pyridine-1-carbothioic acid (3-methoxy-phenyl)-amide] | < 10 | < 10 | ≤ 10 | < 10 | > 10 |
| COc1ccc(-c2cn(C(=O)Nc3ccc(F)c([N+](=O)[O-])c3)c3ncccc23)cc1OC [Compound 31, 3-(3,4-Dimethoxy-phenyl)-pyrrolo[2,3-b]pyridine-1-carboxylic acid (4-fluoro-3-nitro-phenyl)-amide] | < 10 | < 10 | ≤ 10 | < 10 | ≤ 10 |
| CCOc1cc(N)ccc1C(=O)n1cc(-c2ccc(OC)c(OC)c2)c2cccnc21 [Compound 144, (4-Amino-2-ethoxy-phenyl)-[3-(3,4-dimethoxy-phenyl)-pyrrolo[2,3-b]pyridin-1-yl]-methanone] | < 10 | < 10 | ≤ 10 | < 10 | ≤ 10 |
| COc1ccc(-c2cn(C(=O)c3ccnc4ccccc34)c3ncccc23)cc1OC [Compound 115, [3-(3,4-Dimethoxy-phenyl)-pyrrolo[2,3-b]pyridin-1-yl]-quinolin-4-yl-methanone] | < 10 | < 10 | ≤ 10 | < 10 | ≤ 10 |
| COc1ccc(-c2cn(S(=O)(=O)c3cccc4cc(C)cnc34)c3ccc(Cl)cc23)cc1OC [Compound 96, 8-[5-Chloro-3-(3,4-Dimethoxy-phenyl)-indole-1-sulfonyl]-3-methyl-quinoline] | < 10 | < 10 | ≤ 10 | < 10 | ≤ 10 |
| COc1ccc(-c2c(C)[nH]c3ncccc23)cc1OC [Compound 143, 3-(3,4-Dimethoxy-phenyl)-2-methyl-1H-pyrrolo[2,3-b]pyridine] | < 10 | – | ≤ 10 | – | – |
| COc1ccc(-c2cn(Cc3cc(-c4ccccc4)no3)c3ncccc23)cc1OC [Compound 104, 3-(3,4-Dimethoxy-phenyl)-1-(3-phenyl-isoxazol-5-ylmethyl)-1H-pyrrolo[2,3-b]pyridine] | < 10 | < 10 | ≤ 10 | < 10 | – |
| COc1ccc(-c2cn(C(=O)Nc3ccccc3)c3ncccc23)cc1OC [Compound 28, 3-(3,4-Dimethoxy-phenyl)-pyrrolo[2,3-b]pyridine-1-carboxylic acid phenylamide] | < 10 | < 10 | ≤ 10 | < 10 | – |
| COc1ccc(-c2cn(C(=O)c3c(OCC(F)(F)F)ccc4ccccc34)c3ncccc23)cc1OC1CCCC1 [Compound 124, [3-(3-Cyclopentyloxy-4-methoxy-phenyl)-pyrrolo[2,3-b]pyridin-1-yl]-[2-(2,2,2-trifluoro-ethoxy)-naphthalen-1-yl]-methanone] | < 10 | < 10 | ≤ 10 | < 10 | – |
